A short description of data set [1]: Chlorine stability of chlorinated HA and HASA55 solutions over 10 weeks (available chlorine, DPD). The data set is classed as physicochemical. As to the method:
(§1) Various aqueous electrophilic halogen solutions were used to dissolve HASA55 powder. Undiluted disinfexol stock solution was used as HOCl source, Clorox® germicidal bleach diluted 1:48 volumetrically was used as a NaOCl source, and a stock solution of Purtab prepared by dissolving 1 tablet in a quart of water was used as a NaDCC source. Various samples of HASA55 solutions chlorinated with HOCl, NaOCl, and NaDCC were prepared by dissolving HASA55 in the electrophilic halogen source solutions at stoichiometric molar ratios of 2:1, 1:1, 1:2, 1:4, and 1:8 HASA55:electrophilic halogen source for HOCl and NaOCl, and at stoichiometric molar ratios of 4:1, 2:1, 1:1, 1:2, and 1:4 HASA55:NaDCC. Various samples of HA monomers chlorinated with HOCl, NaOCl, and NaDCC were prepared by dissolving HA monomer in the electrophilic halogen source solutions at stoichiometric molar ratios of 2:1, 1:1, 1:2, 1:3, and 1:6 HA:electrophilic halogen source for HOCl and NaOCl, and at stoichiometric molar ratios of 4:1, 2:1, 1:1, 1:1.5, and 1:3 for HA:NaDCC. The resulting solutions were sealed and stored in air-tight bottles to assess the amount of available chlorine and the pH of the solution over time. Available chlorine concentrations were calculated according to a spectrophotometric method using a DPD indicator as detailed above and pH was calculated using a pH meter.

Data set [2] can be described thus: pH of chlorinated HA and HASA55 solutions over time. The data set is classed as physicochemical. Conditions: HOCl series, 10 weeks. The protocol:
as §1

In data set [3] the test system is S. aureus. Description: MIC testing of chlorinated HASA. The conditions noted are these: for MIC: Staphylococcus aureus. The data set is classed as cell-based, Staphylococcus aureus. The protocol: (§2) NaDCC, NaOC, HOC, and HASA-Cl solutions were prepared at chlorine concentrations of 300, 250, 200, 150, 100, and 50 ppm and mixed with a S. aureus suspension containing […] as an organic load for 30 seconds. After 30 seconds, the mixtures were neutralized with Na2S2O3 to quench oxidative chlorine, added to tryptic soy broth (TSB), and incubated (e.g., for 48 hours at 37° C.). Following the incubation, samples were assessed for S. aureus growth inhibition to determine the minimum inhibitory concentration (MIC). […] To determine the minimum biocidal concentration (MBC), samples were plated on agar and viable colonies counted. […] The analysis was run in duplicate with a 8.34 log inoculum concentration of S. aureus in the first analysis and a 8.37 log inoculum concentration of S. aureus in the second analysis.
(§3) NaDCC, NaOCl, HOC, and HASA-Cl solutions were prepared at chlorine concentrations of 800, 700, 600, 500, 400, 300, 200, and 100 ppm and mixed with a suspension of S. aureus containing 10% FBS or 15% as an organic load and reacted for 1 minute or 5 minutes. After reacting, the mixtures were neutralized with Na2S2O3 to quench oxidative chlorine, added to tryptic soy broth (TSB), and incubated (e.g., for 48 hours at 37° C.). Following the incubation, samples were assessed for S. aureus growth inhibition to determine the MIC. […] To determine the MBC, samples were plated on agar and viable colonies counted. […] The analysis was run in duplicate with a 8.23 log inoculum concentration of S. aureus.
(§4) Three solutions of HASA-Cl (HASA-Cl_D, HASA-Cl_E, and HASA-Cl_F) were prepared by chlorinating HASA55 in aqueous HOCl at varying HASA55:chlorine stoichiometric molar ratios, isolating the chlorinated HASA55-Cl polymer, and dissolving the chlorinated polymer in water. The three HASA-Cl solutions and HASA-HOCl, NaDCC, NaOCl, and HOCl solutions were diluted to chlorine concentrations of 300, 250, 200, 150, 100, and 50 ppm, mixed with a suspension of S. aureus with 5% FBS organic load, and reacted for 30 seconds. After reacting, the mixtures were neutralized to remove oxidative chlorine, added to tryptic soy broth, and incubated (e.g. for 48 hours at 37° C.). Following the incubation, samples were assessed for S. aureus growth inhibition to determine the MIC. To determine the MBC, samples were plated on agar and viable colonies counted. […] The analysis was run in duplicate with a 8.34 log inoculum concentration of S. aureus in the first experiment and a 8.37 log inoculum concentration of S. aureus in the second experiment.

In data set [4] the test system is S. aureus. Description: MBC testing of chlorinated HASA. The format is cell-based, Staphylococcus aureus. The conditions noted are these: for MBC: Staphylococcus aureus. The protocol:
as §2, §3, §4

Data set [5] is described as follows: Residual chlorine content of dried chlorinated N-halamine coatings on SS304 coupons. The format is physicochemical. Conditions: for Estimated residual Cl (%): SS304 coupon. As to the method:
HASA-Cl solutions were prepared according to procedures detailed in EXAMPLE 6 above. Stainless steel 304 (SS304) coupons with a dimension of 1″×1″ and thickness of 0.024″ were scrubbed with a sponge and 1% detergent (e.g., Liquinox®), rinsed with deionized water, and dried. To the dried SS304 coupons, a 1 mL sample of a HASA-Cl, HA-Cl, or electrophilic halogen solution was pipetted using a micropipette without rinsing or wiping the coupon after pipetting. The sample coupons coated with HASA-Cl HA-Cl, and electrophilic halogen sources, were stored at ambient temperature and humidity with indoor light exposure. […] HASA/HOCl solutions with high stoichiometric molar amounts of HASA (2:1 HASA:HOCl and 1:1 HASA:HOCl) formed coatings with a flaked dried polymer appearance, while the other solutions formed coatings with a stain-like appearance with a majority of the SS304 base substrate exposed.
To extract chlorine from the surface of a SS304 sample coupon, a sample coupon was added to a centrifuge tube containing 20 mL of deionized water, 200 mg of K1, and 10 drops of 4N acetic acid. The mixture containing the sample coupon was mixed by shaking (e.g. at 120 rpm for 10 minutes), and solution removed and added to a glass sample cell for analysis by spectrophotometry with a DPD indicator according to the procedure detailed above. The amount of chlorine was calculated against a chlorine standard curve. Chlorine density was calculated according to the following formula: […]
The bars are presented in the order Day 1, Day 2, Day 3, Day 7, and Day 28. […] At 28 days, the chlorine density of HASA/HOCl and HA/HOCl solutions decreased, to around half of the Day 1 chlorine density. […] Estimated residual chlorine percentages were calculated from the ratio of the amount of chlorine retrieved from the dried coating over the amount of chlorine deposited in the 1 mL solution. TABLE 19 summarizes the estimated residual chlorine percentages of HA/HOCl and HASA/HOCl solutions over the 28 days. Estimated residual chlorine percentages were stable for up to 1 week for HASA/HOCl solutions with stoichiometric molar ratios of HASA:HOCl higher than 1:2, aligning with the chlorine density data.

Where [6] appears, read: 5% FBS organic load, 30 seconds (Table 18).
Setting [7] is: Exp 1, 5 FBS organic load, 30 seconds, 8.34 log inoculum, ppm chlorine.
Setting [8] is: Exp 2, 5 FBS organic load, 30 seconds, 8.37 log inoculum.
Setting [9] is: Exp 1, 5 FBS organic load, 30 seconds, 8.34 log inoculum.

In the case of `OCl` [HOCl, hypochlorous acid], the “chlorine loss (in words)” value in data set [1] (HOCl series, 10 week period) was “lowest chlorine loss”. Besides, the available chlorine in data set [1] (HOCl series, Day 0) amounted to 707 mg/L; in data set [1] (HOCl series, W 0), 727 mg/L; in data set [1] (HOCl series, W 4), 687 mg/L; in data set [1] (HOCl series, W 6), 637 mg/L; in data set [1] (HOCl series, W 10), 607 mg/L; in data set [1] (NaOCl series, Day 0), 1443. Besides, the available chlorine in data set [1] (NaOCl series, W 1) amounted to 1447; in data set [1] (NaOCl series, W 3) it was 1443; in data set [1] (NaOCl series, W 6), 1520; in data set [1] (NaOCl series, W 10), 1537. The “pH over time (in words)” value in data set [2] is given as “stable pH”. The MIC value against S. aureus [3] (setting [6]) turned out to be 150 ppm; in the data set on S. aureus [3] (10% FBS, 1 min) it was 300 ppm; in the data set on S. aureus [3] (10% FBS, 5 min), 100 ppm; against S. aureus [3] (15% FBS, 1 min), 300 ppm; against S. aureus [3] (15% FBS, 5 min), 200 ppm; with S. aureus [3] (setting [7]), 150 ppm. In addition, in the data set with S. aureus [3] (setting [8]), the MIC value came out at 100 ppm. In addition, the MBC value with S. aureus [4] (setting [6]) stood at 150 ppm; against S. aureus [4] (10% FBS, 1 min), 300 ppm; against S. aureus [4] (10% FBS, 5 min), 200 ppm; in the data set with S. aureus [4] (15% FBS, 1 min), 300 ppm; with S. aureus [4] (15% FBS, 5 min), 300 ppm; in the data set with S. aureus [4] (setting [9]) it was 150 ppm. The MBC value with S. aureus [4] (setting [8]) is recorded as 100 ppm. The “Estimated residual Cl (%)” value in data set [5] (1 mL deposited, Day 1) was 0.1%; in data set [5] (Day 2), 0.2%; in data set [5] (Day 3), 0.3%; in data set [5] (Day 7) it was 0.1%; in data set [5] (Day 28) it was 0.2%. Further, the “residual chlorine density (in words)” value in data set [5] (SS304 coupons, Day 1) is listed as “no residual chlorine density”.
`O=c1nc([O-])n(Cl)c(=O)n1Cl.[Na+]` [NaDCC, sodium dichloroisocyanurate]: the “available chlorine over time (in words)” value in data set [1] (NaDCC series, 6-week time period) was “low available chlorine levels”. Further, the available chlorine in data set [1] (NaDCC series, Day 0) was found to be 1120; in data set [1] (NaDCC series, W 1) it was 967; in data set [1] (NaDCC series, W 3), 753; in data set [1] (NaDCC series, W 6) it was 530; in data set [1] (NaDCC series, W 10), 330. The MIC value in the data set with S. aureus [3] (setting [6]) worked out at 100 ppm; in the data set on S. aureus [3] (10% FBS, 1 min), 200 ppm; in the data set with S. aureus [3] (10% FBS, 5 min), 200 ppm; in the data set on S. aureus [3] (15% FBS, 1 min) it was 300 ppm; with S. aureus [3] (15% FBS, 5 min), 200 ppm; with S. aureus [3] (setting [7]), 150 ppm. In the data set with S. aureus [3] (setting [8]), this molecule showed an MIC value of 100 ppm. In addition, the MBC value with S. aureus [4] (setting [6]) is reported as 150 ppm; with S. aureus [4] (10% FBS, 1 min), 200 ppm; against S. aureus [4] (10% FBS, 5 min) it was 200 ppm; against S. aureus [4] (15% FBS, 1 min) it was 300 ppm; in the data set with S. aureus [4] (15% FBS, 5 min), 200 ppm; against S. aureus [4] (setting [9]), 150 ppm. The MBC value in the data set with S. aureus [4] (setting [8]) is on record as 150 ppm.
As usually defined, the MIC is the smallest concentration in the dilution series that meets the test's criterion for growth inhibition. Low values mean a more susceptible organism, high ones a less susceptible organism. Usually MBC stands for the smallest concentration meeting the test's criterion for killing. A higher MBC goes with less potent killing. For the molecule `OCl` [NaOCl, sodium hypochlorite], the “chlorine levels and pH over time (in words)” value in data set [1] (NaOCl series) is “no chlorine loss and no change in pH”. Besides, the MIC against S. aureus [3] (setting [6]) is 200 µg/mL; against S. aureus [3] (1 min, 10% FBS) it was 400 µg/mL; with S. aureus [3] (1 min, 15% FBS), 500 µg/mL; against S. aureus [3] (5 min, 10% FBS), 100 µg/mL; in the data set with S. aureus [3] (5 min, 15% FBS), 100 µg/mL; against S. aureus [3] (setting [7]) it was 100 µg/mL. This molecule also came in with a minimal inhibitory concentration (MIC) in the data set with S. aureus [3] (setting [8]) of 100 µg/mL. In the data set on S. aureus [4] (setting [8]), this molecule displayed an MBC value of 250 ppm. The minimum bactericidal concentration (MBC) against S. aureus [4] (setting [6]) is 200 µg/mL; against S. aureus [4] (1 min, 10% FBS) it was 400 µg/mL; against S. aureus [4] (1 min, 15% FBS), 500 µg/mL; in the data set with S. aureus [4] (5 min, 10% FBS) it was 200 µg/mL; in the data set with S. aureus [4] (5 min, 15% FBS), 400 µg/mL; with S. aureus [4] (setting [9]) it was 200 µg/mL.

(Values after patent US20250261637A1, “DISINFECTANT COMPOSITIONS AND METHODS THEREOF” (HALOMINE INC., priority 2022, published 2025).)
